Source: publication PMC6057649, “Development of NanoLuc-PEST expressing Leishmania mexicana as a new drug discovery tool for axenic- and intramacrophage-based assays” (PLoS Neglected Tropical Diseases, 2018)

Tested on: NanoLuc-PEST expressing L. mexicana axenic amastigotes
Assay: microbe, parasite or virus in culture
Assay type: cell-based
Details: for Relative Bioluminescence (%) / viability at 2 µM / viability at 10 µM: 72 hours, relative to DMSO only control, n = 4; for viability at 2 µM / viability at 10 µM: Leishmania mexicana, read-out: Relative Bioluminescence (%); for EC50: hit compounds from the axenic amastigote screen, S3 Table, read-out: EC50, Axenic Amastigotes

Row | Compound | Relative Bioluminescence (%) (2 µM compound) | Relative Bioluminescence (%) (10 µM compound) | viability at 2 µM (2 µM compound) [%] | viability at 10 µM (10 µM compound) [%] | EC50 [nM]
1 | CC(=O)Nc1ccc(-c2noc(CC3CCCN(Cc4cccc(F)c4C)C3)n2)cc1 (centres unmarked) [MMV689061] | 77.60 | 95.91 |  |  | 
2 | NC(N)=Nc1ccc(-c2ccc(-c3ccc(N=C(N)N)cc3Cl)o2)c(Cl)c1 [MMV688179] | 105.96 | 54.50 |  |  | 
3 | O=[N+]([O-])c1cn2c(n1)OC[C@@H](OCc1ccc(OC(F)(F)F)cc1)C2 [MMV688755] | 26.38 | 0.45 |  |  | 
4 | NCC(=O)N1CCn2c(nc(-c3ccccc3)c2Nc2ccc3c(c2)OCO3)C1 [MMV011691] | 105.27 | 73.17 |  |  | 
5 | N#CCN(CCCCN1CCN(c2ccc(F)cc2)CC1)C(=O)OCc1ccccc1 [MMV675997] | 116.18 | 97.48 |  |  | 
6 | Cc1nc(-c2ccccn2)nc(N2CCC(Cc3ccccc3)C2)c1Cl (centres unmarked) [MMV659004] | 73.83 | -1.44 |  |  | 
7 | Cc1ccc2nc(C)c(-c3ccn(Cc4ccccc4)n3)n2c1 [MMV688939] | 75.51 | 51.85 |  |  | 
8 | CNC(=O)c1nn(C)c2c1C(C)(C)Cc1cnc(Nc3ccc(N4CCN(C)CC4)cc3)nc1-2 [MMV676602] | 91.95 | 77.62 |  |  | 
9 | [H]/N=C(/N)N[C@H]1[C@H](O)[C@@H](O)[C@H](O[C@@H]2O[C@@H](C)[C@](O)(C=O)[C@H]2O[C@@H]2O[C@@H](CO)[C@H](O)[C@@H](O)[C@@H]2NC)[C@@H](N/C(N)=N\[H])[C@@H]1O [MMV688994, Streptomycin, reference compound] |  |  | 94 | 84.3 | 
10 | C[C@H](C(N)=O)N1CCCC[C@@H]1c1ccc(OCc2cccc(F)c2)cc1 [MMV676270] | 41.26 | 18.00 |  |  | 
11 | Cc1[nH]c2ccccc2c1C(c1cccs1)N1CCN(C)CC1 (centres unmarked) [MMV688768] | 75.96 | -1.33 |  |  | 
12 | C[C@H](c1ccc2c(c1)CCCC2)N(C)c1ncc2c(N)nc(N)nc2n1 [MMV690103] | 59.86 | 0.48 |  |  | 
13 | Levofloxacin (-)-ofloxacin [MMV687798, reference compound] | 83.03 | 74.50 |  |  | 
14 | OC(c1cc(C(F)(F)F)nc2c(C(F)(F)F)cccc12)C1CCCCN1 (centres unmarked) [MMV000014, Mefloquine, reference compound] |  |  | 93.4 | 109 | 
15 | CC(C)(C)c1cc(C(=O)Nc2cccnc2)cc(C(=O)Nc2cccnc2)c1 [MMV020982] | 109.38 | 93.07 |  |  | 
16 | CCC(Sc1nc2ccccc2o1)C(=O)Nc1nccs1 (centres unmarked) [MMV676383] | 136.33 | 127.92 |  |  | 
17 | O=C(COc1cccc(F)c1)Nc1nc(-c2ccccn2)cs1 [MMV676409] | 37.25 | 12.84 |  |  | 
18 | CO[C@@H]1CN(c2ccc(C#CC3(O)CN4CCC3CC4)c(Cc3ccccc3)n2)C[C@H]1O (some centres unmarked) [MMV688415] | 63.04 | 31.88 |  |  | 
19 | Clc1ccc(Cl)c(CO[C@H]2CCCC[C@@H]2n2ccnc2)c1 [MMV676048] | 104.27 | 53.90 |  |  | 
20 | CCOc1ccc(OCC(=O)Nc2cc(C)cc(C)c2)cc1 [MMV676470] | 87.35 | 79.72 |  |  | 

Row | Compound | Relative Bioluminescence (%) (2 µM compound) | Relative Bioluminescence (%) (10 µM compound) | viability at 2 µM (2 µM compound) [%] | viability at 10 µM (10 µM compound) [%] | EC50 [nM]
21 | O=C(c1ccco1)N(CCCn1ccnc1)c1nc2c(Cl)cccc2s1 [MMV688936] | 80.40 | 77.21 |  |  | 
22 | CCCNC(=O)N1CCC2(CC1)CC(=O)c1cc(C)ccc1O2 [MMV085230] | 100.02 | 105.91 |  |  | 
23 | CC(=O)N1CCN(c2ccc(Oc3ccc(Cl)cc3O)cc2)CC1 [MMV688330] | 97.96 | 79.07 |  |  | 
24 | Cc1c[nH]c(CCNC(=O)c2cc(-c3ccc(Cl)cc3)cs2)n1 [MMV676350] | 84.72 | 104.94 |  |  | 
25 | CC(C)C(NC(=O)Cc1cccc2ccccc12)C(=O)Nc1cccc(C#N)c1 (centres unmarked) [MMV020591] | 87.56 | 94.51 |  |  | 
26 | CC(C)(C)OC(=O)N1CCC(Cn2nc(-c3cnc4ccccc4c3)c3c(N)ncnc32)CC1 [MMV688364] | 80.73 | 58.45 |  |  | 
27 | O=C(c1n[nH]c2c1CCCC2)N1CCN(Cc2ccc3c(c2)OCO3)CC1 [MMV676389] | 67.21 | 71.87 |  |  | 
28 | CCC(C)NC(=O)c1ccc(NC(=O)C2(c3ccccc3)CCCC2)cc1 (centres unmarked) [MMV146306] | 97.77 | 40.43 |  |  | 
29 | O=C1N(Cc2cc3ccccc3s2)CC2CN(Cc3ccccc3)CCN12 (centres unmarked) [MMV084603] | 70.21 | 61.10 |  |  | 
30 | O=C(Nc1nc(-c2ccccn2)cs1)c1cncn1-c1ccccc1 [MMV676512] | 15.66 | -0.58 |  |  | 
31 | COc1cc(NC(C)CCCN)c2ncccc2c1 (centres unmarked) [MMV000023, Primaquine, reference compound] |  |  | 55 | 76.8 | 
32 | CCOc1ccc2cc(-c3nn(C(C)(C)C)c(N)c3C(N)=O)cnc2c1 [MMV688853] | 34.19 | 42.96 |  |  | 
33 | COc1cc(-c2cc(-c3ccc(S(C)(=O)=O)cc3)cnc2N)ccc1O [MMV010576] | 44.69 | 21.84 |  |  | 
34 | Cc1ccc(-c2cc(C(=O)Nc3cccnc3)c3cc(Br)ccc3n2)cc1 [MMV016838] | 44.83 | 13.69 |  |  | 
35 | NS(=O)(=O)c1cccc(-c2ccc3ncc(N4CCOCC4)nc3c2)c1 [MMV023860] | 79.77 | 74.37 |  |  | 
36 | Clc1ccc(CCNc2cc(-c3ccccc3)nc3ncnn23)cc1 [MMV688889] | 73.23 | 59.03 |  |  | 
37 | Cc1cc(C)n(-c2ccc(NC(=O)C3CCN(Cc4cnc(C)s4)CC3)cc2)n1 [MMV007625] | 85.10 | 76.47 |  |  | 
38 | COc1ccc(-c2cc(NC(=O)c3ccc(F)cc3Cl)ccc2OC)cc1 [MMV676526] | 103.78 | 46.48 |  |  | 
39 | N#Cc1nc(-c2ccccc2)oc1S(=O)(=O)c1ccc(Cl)cc1 [MMV676412] | 0.46 | -0.09 |  |  | 260
40 | O=C(Nc1ccc(N2CCNCC2)nc1)c1oc(-c2ccccc2)nc1C(F)(F)F [MMV024937] | 68.74 | 69.28 |  |  | 

Row | Compound | Relative Bioluminescence (%) (2 µM compound) | Relative Bioluminescence (%) (10 µM compound) | viability at 2 µM (2 µM compound) [%] | viability at 10 µM (10 µM compound) [%] | EC50 [nM]
41 | Nc1ccc(C(=O)Nc2ccc(-c3nc4ccccc4o3)cc2)cc1 [MMV007920] | 112.76 | 88.96 |  |  | 
42 | OCCc1ccc(Nc2nccc(-c3nnc4ccccn34)n2)cc1 [MMV028694] | 24.99 | 3.77 |  |  | 
43 | COc1cc(C2=NCCN2)ccc1-n1cc(-c2cccc(C3=NCCN3)c2)nn1 [MMV688474] | 77.71 | 76.43 |  |  | 
44 | O=C1O[C@@H](COc2ccon2)CN1c1cc(F)c(C2=CCN(Cc3ccccc3)CC2)c(F)c1 [MMV687813] | 52.93 | 58.34 |  |  | 
45 | Cc1nn(Cc2ccccc2)c(Cl)c1C(=O)NC1CCCCCC1 [MMV063404] | 86.21 | 79.51 |  |  | 
46 | COc1cc2ncnc(NC3CCN(Cc4ccccc4)CC3)c2cc1OC [MMV006741] | 83.56 | 113.49 |  |  | 
47 | Cc1ccc(NC(=O)CC2COc3ccccc3O2)cc1Cl (centres unmarked) [MMV676431] | 104.86 | 65.31 |  |  | 
48 | CC(C)(C)C(=O)N(CCCCCCN1C[C@H](O)[C@@H](O)[C@H](O)[C@H]1CO)C1CCCCCC1 [MMV688543] | 65.10 | 39.32 |  |  | 
49 | FC(F)(F)c1nnc2ccc(Cl)nn12 [MMV069458] | 115.05 | 112.41 |  |  | 
50 | COc1ccc(-c2nc(-c3cccc(NC(=O)Cc4ccc(F)cc4)c3)no2)cc1OC [MMV676571] | 102.29 | 85.94 |  |  | 
51 | O=C(NCc1cc(Cl)cc(Cl)c1)c1c(C(F)(F)F)nc2ccccn12 [MMV687699] | 81.42 | 62.05 |  |  | 
52 | O=C(Nc1cccc(-c2ccc(NCCCN3CCCC3)nc2)c1)c1ccccc1 [MMV023953] | 85.42 | 83.96 |  |  | 
53 | CC(=O)NC[C@H]1CN(c2ccc(-c3ccc(CNCc4cnn[nH]4)cc3)c(F)c2)C(=O)O1 [MMV688327, Radezolid, reference compound] |  |  | 87.8 | 126 | 
54 | Nc1ncnc2c1c(Cc1cccc3ccccc13)nn2CC1CCNCC1 [MMV676182] | 78.18 | 53.64 |  |  | 
55 | CCOC(=O)c1c(NC(=O)c2c(F)c(F)c(F)c(F)c2F)sc(C(N)=O)c1C [MMV153413] | 4.50 | 0.97 |  |  | 520
56 | Nc1c2c(nc3sc4c(c13)CCCC4)CCCC2 [MMV676588] | 70.58 | 69.13 |  |  | 
57 | Cn1c(=O)c2c(S(C)(=O)=O)snc2n(C)c1=O [MMV687251] | -4.37 | -0.24 |  |  | 480
58 | COc1ccc(OC)c(NCc2ccc3nc(N)nc(N)c3c2Cl)c1 [MMV675968] | 100.09 | 86.04 |  |  | 
